Values after ≈ are worked out from the molar mass of the structure shown. Values joined by “and” are separate entries in the source; they are usually repeats but may differ in a detail not shown here. Identical values can stand only once. Like-named read-outs stand apart in the source and are kept apart here.
Tests used:
[1] = system: E. coli NCTC 13352; experiment: Antibacterial activity (MIC), agar dilution per CLSI; assay type: cell-based; settings: Escherichia coli, NCTC13352
Procedure: (§1) The biological activity of representative compounds according to the invention against various bacterial strains was investigated. In a typical study, overnight grown bacterial cultures were diluted appropriately and inoculated on the agar media containing doubling dilutions of the test compounds. Observations for growth or no growth was performed after 16-20 hours of incubation at 35±2° C. in the ambient air. The overall procedure was performed as per Clinical and Laboratory Standards Institute (CLSI) recommendations, (Clinical and Laboratory Standards Institute (CLSI), Performance Standards for Antimicrobial Susceptibility Testing, 20th Informational Supplement, M07-A9, Volume 32, No. 2, 2012). Molten Mueller Hinton Agar (BD, USA) containing serial dilutions of each antibacterial agent were poured on to the plates and allowed to solidify. Appropriate suspensions from the freshly grown cultures were prepared in normal saline so that about 10^4 CFU/spot of the organism was delivered on to the drug containing agar plates using automated multipoint inoculator (Mast, UK). The plates were incubated in Biochemical oxygen demand (BOD) incubator at 37° C. for 18 hours and then examined for growth.
(§2) Table 3 details the antibacterial activity of representative compound of Formula (I), (2S,5R)-sulfuric acid mono-{2-[N′-(2-(S)-pyrrolidin-2-yl-acetyl)-hydrazinocarbonyl]-7-oxo-1,6-diaza-bicyclo[3.2.1]oct-6-yl}ester (Compound of Example 1), against various Multi Drug Resistant (MDR) Gram-negative bacterial strains. The activities are expressed as Minimum Inhibitory Concentrations (MICs) (mcg/ml).

[2] = system: P. aeruginosa ATCC 27853; experiment: as above; assay type: cell-based; settings: Pseudomonas aeruginosa, ATCC27853
Procedure: as §1, §2

[3] = system: P. aeruginosa R 20; experiment: as above; assay type: cell-based; settings: Pseudomonas aeruginosa, R20
Procedure: as §1, §2

[4] = system: P. aeruginosa PAO1; experiment: as above; assay type: cell-based; settings: Pseudomonas aeruginosa
Procedure: as §1, §2

[5] = system: E. coli M 50; experiment: as above; assay type: cell-based; settings: Escherichia coli, M50
Procedure: as §1, §2

[6] = system: P. aeruginosa 2779; experiment: as above; assay type: cell-based; settings: Pseudomonas aeruginosa
Procedure: as §1, §2

[7] = system: E. coli 7 MP; experiment: as above; assay type: cell-based; settings: Escherichia coli
Procedure: as §1, §2

[8] = system: E. coli M 49; experiment: as above; assay type: cell-based; settings: Escherichia coli, M49
Procedure: as §1, §2

[9] = system: K. pneumoniae H 525; experiment: as above; assay type: cell-based; settings: Klebsiella pneumoniae, H525
Procedure: as §1, §2

[10] = system: Class C beta-lactamase CMY/DHA (E. coli M50); experiment: Beta-lactamase enzyme inhibition (Nitrocefin, crude enzyme); assay type: biochemical
Procedure: (§3) Absorbance was measured at 485 nm by UV-spectrophotometer. The IC50 was calculated by plotting absorbance against concentration through Sigmoidal dose response curve using Graph Pad software.
(§4) The enzyme inhibition was expressed as IC50.

[11] = target: T1, Class A beta-lactamase SHV 18 (K. pneumoniae ATCC 700603) (Klebsiella pneumoniae, UniProt P0AD64, E235K/G234A/I4F/R39S); experiment: as above; assay type: biochemical; settings: Class A, K. pneumoniae ATCC 700603 (SHV 18); read-out: Beta-lactamase enzyme inhibition IC50
T1 sequence (P0AD64 1-286 I4F/R39S/G234A/E235K): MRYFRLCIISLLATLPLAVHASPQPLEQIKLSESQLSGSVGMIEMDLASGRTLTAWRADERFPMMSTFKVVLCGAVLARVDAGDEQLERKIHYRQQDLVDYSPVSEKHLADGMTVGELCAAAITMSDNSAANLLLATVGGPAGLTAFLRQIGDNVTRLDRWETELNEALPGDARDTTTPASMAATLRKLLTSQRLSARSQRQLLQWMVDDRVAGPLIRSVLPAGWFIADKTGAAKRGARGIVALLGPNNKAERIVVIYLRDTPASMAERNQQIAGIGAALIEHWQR
Procedure: as §3, §4

[12] = target: T2, Class D beta-lactamase OXA 23 (A. baumannii NCTC 13301) (Acinetobacter baumannii, UniProt Q9L4P2); experiment: as above; assay type: biochemical; settings: Class D, A. baumannii NCTC 13301 (OXA 23); read-out: Beta-lactamase enzyme inhibition IC50
T2 construct: preincubated mixture of crude enzyme and the compounds; endogenous in cells; host or cells: A. baumannii NCTC 13301
Procedure: as §3, §4

[13] = system: K. pneumoniae H521 (KPC, SHV, TEM); experiment: Antibacterial activity (MIC), agar dilution per CLSI; assay type: cell-based; settings: Klebsiella pneumoniae; K. pneumoniae H521 (KPC, SHV, TEM); read-out: MIC
Procedure: as §1
(§5) The strains selected for study included E. coli NCTC 13353 producing CTX-M15 and OXA-1 beta-lactamase enzymes; K. pneumoniae H521 producing KPC, SHV, TEM beta-lactamase enzymes; and K. pneumoniae S48 producing NDM, SHV, TEM beta-lactamase enzymes. The activities are expressed as Minimum Inhibitory Concentrations (MICs) (mcg/ml).
(§6) The activities are expressed as Minimum Inhibitory Concentrations (MICs) (mcg/ml).

[14] = system: E. coli NCTC 13353 (CTX-M15, OXA-1); experiment: as above; assay type: cell-based; settings: Escherichia coli, NCTC13353; E. coli NCTC 13353 (CTX-M15, OXA-1); read-out: MIC
Procedure: as §1, §5, §6

[15] = system: E. coli M50; experiment: Zone of inhibition, agar well, with and without ceftazidime; assay type: cell-based; settings: E. coli M50
Procedure: (§7) In a typical experiment, two sets of plates containing growth media (Molten Mueller Hilton Agar) and bacterial strains were prepared. One set of plates was taken as control (without ceftazidime) and other set contained ceftazidime. The media was allowed to solidify and wells were punched later, into which varying concentrations of compounds according to the invention were poured. A two-fold serial dilution range of each of the compounds according to invention was prepared and 50 μl of each of the dilution was added into the punched well. The plates were then incubated at 37° C. for 18 hours in BOD incubator and diameters of zone of inhibition were measured after the completion of the incubation.
(§8) The Table 6 provides the antibacterial activity of the combination comprising compounds according to invention and ceftazidime. The compounds according to invention were tested at 0.12, 0.25, 0.5 and 1 μg/well.

[16] = system: E. coli NCTC 13353; experiment: as above; assay type: cell-based; settings: E. coli NCTC 13353
Procedure: as §7, §8

[17] = compound 0.25 μg/well + Ceftazidime 10 μg/ml
[18] = compound 0.5 μg/well + Ceftazidime 10 μg/ml
[19] = compound 1 μg/well + Ceftazidime 10 μg/ml
[20] = compound […] + Ceftazidime 10 μg/ml

T2 sequence (Q9L4P2 18-273): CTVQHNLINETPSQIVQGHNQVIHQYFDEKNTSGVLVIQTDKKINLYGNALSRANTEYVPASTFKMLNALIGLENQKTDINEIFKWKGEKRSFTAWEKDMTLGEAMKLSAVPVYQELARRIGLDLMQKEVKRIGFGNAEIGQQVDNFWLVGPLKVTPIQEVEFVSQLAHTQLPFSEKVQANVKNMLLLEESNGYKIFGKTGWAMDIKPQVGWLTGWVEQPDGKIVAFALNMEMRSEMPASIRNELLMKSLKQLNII

SMILES: O=C(C[C@@H]1CCCN1)NNC(=O)[C@@H]1CC[C@@H]2CN1C(=O)N2OS(=O)(=O)O [Example 1, (2S,5R)-Sulfuric acid mono-{2-[N′-(2-(S)-pyrrolidin-2-yl-acetyl)-hydrazinocarbonyl]-7-oxo-1,6-diaza-bicyclo[3.2.1]oct-6-yl}ester]
- MIC [1]: 0.5 µg/mL (≈ 1.28 µM)
- MIC [2]: 8 µg/mL (≈ 20.4 µM)
- MIC [3]: 16 µg/mL (≈ 40.9 µM)
- MIC [4]: 4 µg/mL (≈ 10.2 µM)
- MIC [5]: 0.5 µg/mL (≈ 1.28 µM)
- MIC [6]: 8 µg/mL (≈ 20.4 µM)
- MIC [7]: 1 µg/mL (≈ 2.55 µM)
- MIC [8]: 2 µg/mL (≈ 5.11 µM)
- MIC [9]: 0.5 µg/mL (≈ 1.28 µM)
- IC50 [10]: 60 nM
- IC50 ([10]; listed as Compound of Example 1): 65 nM
- IC50 [11]: 80 nM and 81 nM
- IC50 [12]: 2390 nM
- MIC [13]: 0.5 µg/mL (≈ 1.28 µM)
- MIC [14]: 0.5 µg/mL (≈ 1.28 µM)
- Diameter of Zone of Inhibition, Compound + Ceftazidime (10 μg/ml) [15, 17]: 19 mm
- Diameter of Zone of Inhibition, Compound + Ceftazidime (10 μg/ml) [15, 18]: 20.5 mm
- Diameter of Zone of Inhibition, Compound + Ceftazidime (10 μg/ml) [15, 19]: 22.5 mm
- Diameter of Zone of Inhibition, Compound + Ceftazidime (10 μg/ml) [15, 20]: 17 mm
- zone of inhibition at […] ([15]; Escherichia coli, compound alone, 0.12 μg/well, read-out: Diameter of Zone of Inhibition, Compound): 10.5 mm
- zone of inhibition at 0.25 µg/disc ([15]; Escherichia coli, compound alone, 0.25 μg/well, read-out: Diameter of Zone of Inhibition, Compound): 14 mm
- zone of inhibition at 0.5 µg/disc ([15]; Escherichia coli, compound alone, 0.5 μg/well, read-out: Diameter of Zone of Inhibition, Compound): 16 mm
- zone of inhibition at 1 µg/disc ([15]; Escherichia coli, compound alone, 1 μg/well, read-out: Diameter of Zone of Inhibition, Compound): 18 mm
- Diameter of Zone of Inhibition, Compound + Ceftazidime (10 μg/ml) [16, 17]: 26 mm
- Diameter of Zone of Inhibition, Compound + Ceftazidime (10 μg/ml) [16, 18]: 28 mm
- Diameter of Zone of Inhibition, Compound + Ceftazidime (10 μg/ml) [16, 19]: 31 mm
- Diameter of Zone of Inhibition, Compound + Ceftazidime (10 μg/ml) [16, 20]: 22 mm
- zone of inhibition at […] ([16]; Escherichia coli, NCTC13353, compound alone, 0.12 μg/well, read-out: Diameter of Zone of Inhibition, Compound): 11.5 mm
- zone of inhibition at 0.25 µg/disc ([16]; Escherichia coli, NCTC13353, compound alone, 0.25 μg/well, read-out: Diameter of Zone of Inhibition, Compound): 14 mm
- zone of inhibition at 0.5 µg/disc ([16]; Escherichia coli, NCTC13353, compound alone, 0.5 μg/well, read-out: Diameter of Zone of Inhibition, Compound): 15 mm
- zone of inhibition at 1 µg/disc ([16]; Escherichia coli, NCTC13353, compound alone, 1 μg/well, read-out: Diameter of Zone of Inhibition, Compound): 16.5 mm

From patent US9657022B2, “7-OXO-1,6-diazabicyclo[3.2.1]octane derivatives and their use as antibacterial agents” (WOCKHARDT LIMITED, priority 2014, dated 2017)
